Source: patent US10633379B2, “Bromodomain inhibitors” (AbbVie Inc., priority 2016, dated 2020)

Tests used:
[1] = target: BRD4 (BDII_E352-M457) (Homo sapiens (Human), UniProt O60885); assay: TR-FRET bromodomain binding assay, BRD4 BDII; details: mean Ki, calculated from IC50, probe Kd and probe concentration
Protocol: (§1) A time-resolved fluorescence resonance energy transfer (TR-FRET) assay was used to determine the affinities of compounds of the Examples listed in Table 1 for each bromodomain of BRD4. His-tagged first (BDI: amino acids K57-E168) and second (BDII: amino acids E352-M457) bromodomains of BRD4 were expressed and purified. An Alexa647-labeled BET-inhibitor was used as the fluorescent probe in the assay.
(§2) Compound dilution series were prepared in DMSO via an approximately 3-fold serial dilution. Compound dilutions were added directly into white, low-volume assay plates (Perkin Elmer Proxiplate 384 Plus#6008280) using a Labcyte Echo in conjunction with Labcyte Access and Thermo Multidrop CombinL robotics. Compounds were then suspended in eight microliters (μL) of assay buffer (20 mM Sodium Phosphate, pH 6.0, 50 mM NaCl, 1 mM Ethylenediaminetetraacetic acid disodium salt dihydrate, 0.01% Triton X-100, 1 mM DL-Dithiothreitol) containing His-tagged bromodomain, Europium-conjugated anti-His antibody (Invitrogen PV5596) and Alexa-647-conjugated probe.
(§3) The final concentration of 1× assay mixture contained 2% DMSO, 12 nM His tagged BRD4 (BDI_K57-E168) and 100 nM probe or 4 nM His tagged BRD4 (BDII_E352-M457) and 30 nM probe, and 1 nM Europium-conjugated anti-His-tag antibody, and compound concentrations in the range of: 49.02 μM-0.61 nM or 0.98 μM-0.15 nM.
(§4) After a one-hour equilibration at room temperature, TR-FRET ratios were determined using an Envision multilabel plate reader (Ex 340, Em 495/520).
(§5) TR-FRET data were normalized to the means of 24 no-compound controls (“high”) and 8 controls containing 1 μM un-labeled probe (“low”). Percent inhibition was plotted as a function of compound concentration and the data were fit with the 4 parameter logistic equation to obtain IC50s. Inhibition constants (Ki) were calculated from the IC50s, probe Kd and probe concentration.

[2] = target: BRD4 (BDI_K57-E168) (Homo sapiens (Human), UniProt O60885); assay: TR-FRET bromodomain binding assay, BRD4 BDI; details: mean Ki, calculated from IC50, probe Kd and probe concentration
Protocol: as §1, §2, §3, §4, §5

Row | Compound | Ki [1] [nM] | Ki [2] [nM]
1 | CCNC(=O)c1cc2c(-c3cc(C(O)(CC)CC)cnc3Oc3c(C)cccc3C)cn(C)c(=O)c2[nH]1 [Example 2, 4-[2-(2,6-dimethylphenoxy)-5-(3-hydroxypentan-3-yl)pyridin-3-yl]-N-ethyl-6-methyl-7-oxo-6,7-dihydro-1H-pyrrolo[2,3-c]pyridine-2-carboxamide] | 3 | 220
2 | CCNC(=O)c1cc2c(-c3cc(C(C)(C)O)cnc3Oc3c(C)cc(F)cc3C)cn(C)c(=O)c2[nH]1 [Example 43, N-ethyl-4-[2-(4-fluoro-2,6-dimethylphenoxy)-5-(2-hydroxypropan-2-yl)pyridin-3-yl]-6-methyl-7-oxo-6,7-dihydro-1H-pyrrolo[2,3-c]pyridine-2-carboxamide] | 5 | 525
3 | CCNC(=O)c1cc2c(-c3cc(C(C)(O)C(F)(F)F)cnc3Oc3c(C)cc(F)cc3C)cn(C)c(=O)c2[nH]1 (centres unmarked) [Example 79, N-ethyl-4-[2-(4-fluoro-2,6-dimethylphenoxy)-5-(1,1,1-trifluoro-2-hydroxypropan-2-yl)pyridin-3-yl]-6-methyl-7-oxo-6,7-dihydro-1H-pyrrolo[2,3-c]pyridine-2-carboxamide] | 2.5 | 225
4 | Cn1cc(-c2cc(C(C)(C)O)ccc2-c2ccc(F)cc2F)c2cc(C(=O)NC(C)(C)C)[nH]c2c1=O [Example 33, N-tert-butyl-4-[2′,4′-difluoro-4-(2-hydroxypropan-2-yl)[1,1′-biphenyl]-2-yl]-6-methyl-7-oxo-6,7-dihydro-1H-pyrrolo[2,3-c]pyridine-2-carboxamide] | 6.4 | 921
5 | CCNC(=O)c1cc2c(-c3cc(C(C)(C)O)ccc3Oc3c(C)cccc3C(F)F)cn(C)c(=O)c2[nH]1 [Example 70, 4-{2-[2-(difluoromethyl)-6-methylphenoxy]-5-(2-hydroxypropan-2-yl)phenyl}-N-ethyl-6-methyl-7-oxo-6,7-dihydro-1H-pyrrolo[2,3-c]pyridine-2-carboxamide] | 3.7 | 1340
6 | CCNC(=O)c1cc2c(-c3cc(C(O)(C(C)C)C4CC4)cnc3Oc3c(C)cccc3C)cn(C)c(=O)c2[nH]1 (centres unmarked) [Example 26, 4-[5-(1-cyclopropyl-1-hydroxy-2-methylpropyl)-2-(2,6-dimethylphenoxy)pyridin-3-yl]-N-ethyl-6-methyl-7-oxo-6,7-dihydro-1H-pyrrolo[2,3-c]pyridine-2-carboxamide] | 1.5 | 15
7 | CCNC(=O)c1cc2c(-c3cc(C(C)(O)C(C)CC)cnc3Oc3c(C)cccc3C)cn(C)c(=O)c2[nH]1 (centres unmarked) [Example 20, 4-[2-(2,6-dimethylphenoxy)-5-(2-hydroxy-3-methylpentan-2-yl)pyridin-3-yl]-N-ethyl-6-methyl-7-oxo-6,7-dihydro-1H-pyrrolo[2,3-c]pyridine-2-carboxamide] | 3.1 | 363
8 | CCNC(=O)c1cc2c(-c3cc(C(O)(c4ccc(F)cc4)C4CC4)cnc3Oc3c(C)cccc3C)cn(C)c(=O)c2[nH]1 (centres unmarked) [Example 23, 4-{5-[cyclopropyl (4-fluorophenyl)hydroxymethyl]-2-(2,6-dimethylphenoxy)pyridin-3-yl}-N-ethyl-6-methyl-7-oxo-6,7-dihydro-1H-pyrrolo[2,3-c]pyridine-2-carboxamide] | 3.2 | 701
9 | Cc1cccc(Cl)c1Oc1ncc(C(C)(C)O)cc1-c1cn(C)c(=O)c2[nH]c(C(=O)NC3(C)CC3(F)F)cc12 (centres unmarked) [Example 39, 4-[2-(2-chloro-6-methylphenoxy)-5-(2-hydroxypropan-2-yl)pyridin-3-yl]-N-(2,2-difluoro-1-methylcyclopropyl)-6-methyl-7-oxo-6,7-dihydro-1H-pyrrolo[2,3-c]pyridine-2-carboxamide] | 11.3 | 640
10 | Cc1cc(F)cc(C)c1Oc1ccc(C(C)(C)O)cc1-c1cn(C)c(=O)c2[nH]c(C(=O)NC(C)(C)C(F)(F)F)cc12 [Example 55, 4-[2-(4-fluoro-2,6-dimethylphenoxy)-5-(2-hydroxypropan-2-yl)phenyl]-6-methyl-7-oxo-N-(1,1,1-trifluoro-2-methylpropan-2-yl)-6,7-dihydro-1H-pyrrolo[2,3-c]pyridine-2-carboxamide] | 6.9 | 4690
11 | CCNC(=O)c1cc2c(-c3cc(C(O)(CC)C4CCCC4)cnc3Oc3c(C)cccc3C)cn(C)c(=O)c2[nH]1 (centres unmarked) [Example 11, 4-[5-(1-cyclopentyl-1-hydroxypropyl)-2-(2,6-dimethylphenoxy)pyridin-3-yl]-N-ethyl-6-methyl-7-oxo-6,7-dihydro-1H-pyrrolo[2,3-c]pyridine-2-carboxamide] | 2.6 | 170
12 | N-tert-butyl-4-[2-(2,6-dimethylphenoxy)-5-(2-hydroxypropan-2-yl)pyridin-3-yl]-6-methyl-7-oxo-6,7-dihydro-1H-pyrrolo[2,3-c]pyridine-2-carboxamide [Example 50] | 1.3 | 318
13 | CCNC(=O)c1cc2c(-c3cc(C(C)(C)O)ccc3Oc3c(C)cc(Br)cc3C)cn(C)c(=O)c2[nH]1 [Example 72, 4-[2-(4-bromo-2,6-dimethylphenoxy)-5-(2-hydroxypropan-2-yl)phenyl]-N-ethyl-6-methyl-7-oxo-6,7-dihydro-1H-pyrrolo[2,3-c]pyridine-2-carboxamide] | 1.3 | 794
14 | Cc1cccc(C(F)(F)F)c1Oc1ccc(C(C)(C)O)cc1-c1cn(C)c(=O)c2[nH]c(C(=O)NC(C)(C)C)cc12 [Example 54, N-tert-butyl-4-{5-(2-hydroxypropan-2-yl)-2-[2-methyl-6-(trifluoromethyl)phenoxy]phenyl}-6-methyl-7-oxo-6,7-dihydro-1H-pyrrolo[2,3-c]pyridine-2-carboxamide] | 6 | 4520

More lines, now with the values ahead:

Row | Ki [1] [nM] | Ki [2] [nM] | Compound
15 | 1.1 | 169 | CCNC(=O)c1cc2c(-c3cc(C(C)(C)O)cnc3Oc3c(C)ccc(Cl)c3C)cn(C)c(=O)c2[nH]1 [Example 109, 4-[2-(3-chloro-2,6-dimethylphenoxy)-5-(2-hydroxypropan-2-yl)pyridin-3-yl]-N-ethyl-6-methyl-7-oxo-6,7-dihydro-1H-pyrrolo[2,3-c]pyridine-2-carboxamide]
16 | 2.9 | 756 | Cc1cccc(Cl)c1Oc1ccc(C(C)(O)CO)cc1-c1cn(C)c(=O)c2[nH]c(C(=O)NC(C)(C)C)cc12 (centres unmarked) [Example 116, N-tert-butyl-4-[2-(2-chloro-6-methylphenoxy)-5-(1,2-dihydroxypropan-2-yl)phenyl]-6-methyl-7-oxo-6,7-dihydro-1H-pyrrolo[2,3-c]pyridine-2-carboxamide]
17 | 6.3 | 1510 | CCNC(=O)c1cc2c(-c3cc(C(C)(O)CO)ccc3Oc3c(C)cccc3C(F)(F)F)cn(C)c(=O)c2[nH]1 (centres unmarked) [Example 126, 4-{5-(1,2-dihydroxypropan-2-yl)-2-[2-methyl-6-(trifluoromethyl)phenoxy]phenyl}-N-ethyl-6-methyl-7-oxo-6,7-dihydro-1H-pyrrolo[2,3-c]pyridine-2-carboxamide]
18 | 1.3 | 469 | CCNC(=O)c1cc2c(-c3cc(C(C)(O)CCCO)ccc3Oc3c(C)cc(F)cc3C)cn(C)c(=O)c2[nH]1 (centres unmarked) [Example 128, 4-[5-(2,5-dihydroxypentan-2-yl)-2-(4-fluoro-2,6-dimethylphenoxy)phenyl]-N-ethyl-6-methyl-7-oxo-6,7-dihydro-1H-pyrrolo[2,3-c]pyridine-2-carboxamide]
19 | 1 | 168 | CCNC(=O)c1cc2c(-c3cc(C4(O)COC4)ccc3Oc3c(C)cc(F)cc3C)cn(C)c(=O)c2[nH]1 [Example 123, N-ethyl-4-[2-(4-fluoro-2,6-dimethylphenoxy)-5-(3-hydroxyoxetan-3-yl)phenyl]-6-methyl-7-oxo-6,7-dihydro-1H-pyrrolo[2,3-c]pyridine-2-carboxamide]
20 | 1.5 | 215 | Cc1cccc(C)c1Oc1ccc(C(C)(C)O)cc1-c1cn(C)c(=O)c2[nH]c(C(N)=O)cc12 [Example 117, 4-[2-(2,6-dimethylphenoxy)-5-(2-hydroxypropan-2-yl)phenyl]-6-methyl-7-oxo-6,7-dihydro-1H-pyrrolo[2,3-c]pyridine-2-carboxamide]
21 | 2 | 224 | CCNC(=O)c1cc2c(-c3cc(C(C)(C)O)ccc3-c3ccc(OC(F)(F)F)cc3)cn(C)c(=O)c2[nH]1 [Example 110, N-ethyl-4-[4-(2-hydroxypropan-2-yl)-4′-(trifluoromethoxy) [1,1′-biphenyl]-2-yl]-6-methyl-7-oxo-6,7-dihydro-1H-pyrrolo[2,3-c]pyridine-2-carboxamide]
22 | 1.8 | 431 | CCNC(=O)c1cc2c(-c3cc(C(C)(C)O)ccc3Oc3c(C)ccc(Cl)c3C)cn(C)c(=O)c2[nH]1 [Example 99, 4-[2-(3-chloro-2,6-dimethylphenoxy)-5-(2-hydroxypropan-2-yl)phenyl]-N-ethyl-6-methyl-7-oxo-6,7-dihydro-1H-pyrrolo[2,3-c]pyridine-2-carboxamide]
